Patent US20230120564A1, “PYRIDO[3,4-D]PYRIMIDINE DERIVATIVE AND THERAPEUTIC PHARMACEUTIC COMPOSITION COMPRISING SAME” (KOREA INSTITUTE OF SCIENCE AND TECHNOLOGY, priority 2020, published 2023)

Tests used:
[1] = system: Ba/F3 (parental); assay: Inhibition of cell proliferation (GI50); format: cell-based; settings: Mus musculus, BaF3; Ba/F3 (parental) cell line; read-out: Proliferation inhibitory activity (GI50, μM) Ba/F3 (parental)
Method: The inhibitory activities of the compounds of the present invention against the proliferation of the Ba/F3 (parental) cell line were measured and the GI50 values thereof were calculated.

[2] = biological target: ACK1 (Homo sapiens, UniProt Q07912); assay: Kinase inhibitory activity, IC50; format: biochemical
Method: (§1) The inhibitory activities of the compounds of the present invention against two kinases, GCK and ACK1, were measured, and the IC50 values thereof were calculated. As a control, the following compound GNF7 was used.

[3] = biological target: T1, GCK (Homo sapiens, UniProt Q12851); assay: Kinase inhibitory activity, IC50; format: biochemical
T1 sequence (Q12851 1-820): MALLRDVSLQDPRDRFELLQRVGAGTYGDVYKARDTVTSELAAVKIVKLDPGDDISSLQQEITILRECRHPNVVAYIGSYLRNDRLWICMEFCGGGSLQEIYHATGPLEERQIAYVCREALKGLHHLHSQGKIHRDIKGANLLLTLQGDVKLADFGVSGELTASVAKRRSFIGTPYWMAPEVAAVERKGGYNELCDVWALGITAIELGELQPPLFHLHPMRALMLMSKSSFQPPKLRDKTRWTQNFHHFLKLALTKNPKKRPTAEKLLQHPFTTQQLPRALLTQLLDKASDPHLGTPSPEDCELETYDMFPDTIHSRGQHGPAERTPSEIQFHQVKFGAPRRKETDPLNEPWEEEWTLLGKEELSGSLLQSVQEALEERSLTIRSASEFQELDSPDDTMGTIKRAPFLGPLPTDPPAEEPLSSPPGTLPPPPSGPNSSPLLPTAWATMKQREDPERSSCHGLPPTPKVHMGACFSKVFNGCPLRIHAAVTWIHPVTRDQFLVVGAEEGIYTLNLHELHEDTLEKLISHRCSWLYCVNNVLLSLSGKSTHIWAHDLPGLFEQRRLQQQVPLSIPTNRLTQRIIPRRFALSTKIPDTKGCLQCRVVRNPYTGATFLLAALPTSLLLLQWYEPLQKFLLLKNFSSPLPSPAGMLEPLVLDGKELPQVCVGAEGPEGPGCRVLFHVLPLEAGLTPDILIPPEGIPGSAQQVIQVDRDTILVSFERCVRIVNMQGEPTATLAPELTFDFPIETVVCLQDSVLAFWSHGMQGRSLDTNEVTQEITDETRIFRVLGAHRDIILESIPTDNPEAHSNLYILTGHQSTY
Method: as §1

[4] = system: Ba/F3 (N-Ras G12D); assay: Inhibition of cell proliferation (GI50); format: cell-based; settings: Mus musculus, BaF3; mt-NRAS (G12D) Ba/F3 cell line; read-out: Proliferation inhibitory activity (GI50, μM) Ba/F3 (N-Ras G12D)
Method: (§2) The inhibitory activities of the compounds of the present invention against the proliferation of the mt-NRAS (G12D) Ba/F3 and […] (mt-NRAS) cell lines were measured and the GI50 values thereof were calculated.

[5] = system: OCI-AML3 (N-Ras Q61L); assay: Inhibition of cell proliferation (GI50); format: cell-based; settings: Homo sapiens, OCI-AML-3; OCI-AML3 cell line; read-out: Proliferation inhibitory activity (GI50, μM) OCI-AML3 (N-Ras Q61L)
Method: as §2
Referring to the results in Table 2, it can be seen that the compound of the present invention has inhibitory activity against the proliferation of the human acute myeloid leukemia cell line (OCI-AML3) having the NRAS mutant gene, and the effect thereof is remarkable. Therefore, it can be seen that the compound of the present invention is particularly effective as a therapeutic agent for acute myeloid leukemia (AML).

Sequence of ACK1 (Q07912 whole entry): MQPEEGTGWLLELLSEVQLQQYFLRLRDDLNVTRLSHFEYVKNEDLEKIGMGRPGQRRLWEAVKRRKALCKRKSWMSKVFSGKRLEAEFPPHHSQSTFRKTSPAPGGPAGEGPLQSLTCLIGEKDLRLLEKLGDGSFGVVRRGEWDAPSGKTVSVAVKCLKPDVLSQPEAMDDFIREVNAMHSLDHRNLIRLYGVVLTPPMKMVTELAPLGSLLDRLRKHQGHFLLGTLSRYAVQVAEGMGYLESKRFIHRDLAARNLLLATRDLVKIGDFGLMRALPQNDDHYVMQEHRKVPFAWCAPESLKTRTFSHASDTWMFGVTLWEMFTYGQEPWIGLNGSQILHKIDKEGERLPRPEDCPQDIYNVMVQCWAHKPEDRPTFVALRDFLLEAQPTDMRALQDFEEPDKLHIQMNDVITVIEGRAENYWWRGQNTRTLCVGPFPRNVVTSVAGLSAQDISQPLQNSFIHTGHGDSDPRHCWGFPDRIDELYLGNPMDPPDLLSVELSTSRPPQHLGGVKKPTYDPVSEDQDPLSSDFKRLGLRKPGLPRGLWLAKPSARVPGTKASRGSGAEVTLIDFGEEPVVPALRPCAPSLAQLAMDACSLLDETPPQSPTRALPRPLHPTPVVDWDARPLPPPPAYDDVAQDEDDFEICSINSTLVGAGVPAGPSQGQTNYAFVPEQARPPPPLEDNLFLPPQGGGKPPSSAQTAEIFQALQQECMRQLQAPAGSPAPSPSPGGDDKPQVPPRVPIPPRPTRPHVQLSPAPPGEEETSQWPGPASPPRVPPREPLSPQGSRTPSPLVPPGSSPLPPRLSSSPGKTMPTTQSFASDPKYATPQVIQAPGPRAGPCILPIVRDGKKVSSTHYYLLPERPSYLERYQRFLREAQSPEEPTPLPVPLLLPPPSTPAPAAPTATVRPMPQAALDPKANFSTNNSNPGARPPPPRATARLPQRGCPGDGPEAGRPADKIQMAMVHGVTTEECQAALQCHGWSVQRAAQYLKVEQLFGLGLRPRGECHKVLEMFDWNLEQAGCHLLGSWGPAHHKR

Cc1ccc(Nc2ncc3cc(-c4cc(NC(=O)c5cccc(C(F)(F)F)c5)ccc4C)nc(Cl)c3n2)cn1 [Compound No. 1, N-(3-(8-chloro-2-((6-methylpyridin-3-yl)amino)pyrido[3,4-d]pyrimidin-6-yl)-4-methylphenyl)-3-(trifluoromethyl)benzamide]
GI50 [1]: > 5 µM | IC50 [2]: 100 to 1000 nM | IC50 [3]: > 10000 nM | GI50 [4]: < 0.5 µM | GI50 [5]: < 0.5 µM

C=Cc1nc(-c2cc(NC(=O)c3cccc(C(F)(F)F)c3)ccc2C)cc2cnc(Nc3ccc(C)nc3)nc12 [Compound No. 2, N-(4-methyl-3-(2-((6-methylpyridin-3-yl)amino)-8-vinylpyrido[3,4-d]pyrimidin-6-yl)phenyl)-3-(trifluoromethyl)benzamide]
GI50 [1]: 3 to 5 µM | GI50 [4]: < 0.5 µM | GI50 [5]: 0.5 to 3 µM

CCc1nc(-c2cc(NC(=O)c3cccc(C(F)(F)F)c3)ccc2C)cc2cnc(Nc3ccc(C)nc3)nc12 [Compound No. 3, N-(3-(8-ethyl-2-((6-methylpyridin-3-yl)amino)pyrido[3,4-d]pyrimidin-6-yl)-4-methylphenyl)-3-(trifluoromethyl)benzamide]
GI50 [1]: > 5 µM | IC50 [2]: 100 to 1000 nM | IC50 [3]: > 10000 nM | GI50 [4]: 0.5 to 3 µM | GI50 [5]: 0.5 to 3 µM

COc1nc(-c2cc(NC(=O)c3cccc(C(F)(F)F)c3)ccc2C)cc2cnc(Nc3ccc(C)nc3)nc12 [Compound No. 8, N-(3-(8-methoxy-2-((6-methylpyridin-3-yl)amino)pyrido[3,4-d]pyrimidin-6-yl)-4-methylphenyl)-3-(trifluoromethyl)benzamide]
GI50 [1]: 3 to 5 µM | GI50 [4]: 0.5 to 3 µM | GI50 [5]: < 0.5 µM

Cc1ccc(Nc2ncc3cc(-c4cc(NC(=O)c5ccc(CN6CCOCC6)c(C(F)(F)F)c5)ccc4C)ncc3n2)cn1 [Compound No. 12, N-(4-methyl-3-(2-((6-methylpyridin-3-yl)amino)pyrido[3,4-d]pyrimidin-6-yl)phenyl)-4-(morpholinemethyl)-3-(trifluoromethyl)benzamide]
GI50 [1]: > 5 µM | GI50 [4]: < 0.5 µM | GI50 [5]: < 0.5 µM

Cc1ccc(Nc2ncc3cc(-c4cc(NC(=O)c5cc(-n6cnc(C)c6)cc(C(F)(F)F)c5)ccc4C)ncc3n2)cn1 [Compound No. 13, 3-(4-methyl-1H-imidazol-1-yl)-N-(4-methyl-3-(2-((6-methylpyridin-3-yl)amino)pyrido[3,4-d]pyrimidin-6-yl)phenyl)-5-(trifluoromethyl)benzamide]
GI50 [1]: > 5 µM | GI50 [4]: < 0.5 µM | GI50 [5]: < 0.5 µM

Cc1ccc(Nc2ncc3cc(-c4cc(NC(=O)c5cc(N6CCOCC6)cc(C(F)(F)F)c5)ccc4C)ncc3n2)cn1 [Compound No. 14, N-(4-methyl-3-(2-((6-methylpyridin-3-yl)amino)pyrido[3,4-d]pyrimidin-6-yl)phenyl)-3-morpholino-5-(trifluoromethyl)benzamide]
GI50 [1]: 0.5 to 3 µM | GI50 [4]: < 0.5 µM | GI50 [5]: < 0.5 µM

Cc1ccc(NC(=O)c2cccc(C(F)(F)F)c2)cc1-c1cc2cnc(N)nc2cn1 [Compound No. 17, N-(3-(2-aminopyrido[3,4-d]pyrimidin-6-yl)-4-methylphenyl)-3-(trifluoromethyl)benzamide]
GI50 [1]: > 5 µM | GI50 [4]: < 0.5 µM | GI50 [5]: < 0.5 µM

Cc1ccc(NC(=O)c2cccc(C(F)(F)F)c2)cc1-c1cc2cnc(NCCO)nc2cn1 [Compound No. 18, N-(3-(2-((2-hydroxyethyl)amino)pyrido[3,4-d]pyrimidin-6-yl)-4-methylphenyl)-3-(trifluoromethyl)benzamide]
GI50 [1]: > 5 µM | IC50 [2]: 100 to 1000 nM | IC50 [3]: 100 to 1000 nM | GI50 [4]: < 0.5 µM | GI50 [5]: < 0.5 µM

Cc1ccc(NC(=O)c2cccc(C(F)(F)F)c2)cc1-c1cc2cnc(NC3CC3)nc2cn1 [Compound No. 19, N-(3-(2-(cyclicpropylamino)-pyrido[3,4-d]pyrimidin-6-yl)-4-methylphenyl)-3-(trifluoromethyl)benzamide]
GI50 [1]: 0.5 to 3 µM | IC50 [2]: 100 to 1000 nM | IC50 [3]: 100 to 1000 nM | GI50 [4]: < 0.5 µM | GI50 [5]: < 0.5 µM

Cc1ccncc1Nc1ncc2cc(-c3cc(NC(=O)c4cccc(C(F)(F)F)c4)ccc3C)ncc2n1 [Compound No. 23, N-(4-methyl-3-(2-((4-methylpyridin-3-yl)amino)pyrido[3,4-d]pyrimidin-6-yl)phenyl)-3-(trifluoromethyl)benzamide]
GI50 [1]: < 0.5 µM | GI50 [4]: < 0.5 µM | GI50 [5]: < 0.5 µM

Cc1ccc(Nc2ncc3cc(-c4cc(NC(=O)c5cccc(C(F)(F)F)c5)ccc4C)ncc3n2)c(C)n1 [Compound No. 24, N-(3-(2-((2,6-dimethylpyridin-3-yl)amino)pyrido[3,4-d]pyrimidin-6-yl)-4-methylphenyl)-3-(trifluoromethyl)benzamide]
GI50 [1]: > 5 µM | GI50 [4]: < 0.5 µM | GI50 [5]: < 0.5 µM

Cc1ccc(Nc2ncc3c(n2)N(C)C(=O)N(c2cc(NC(=O)c4cccc(C(F)(F)F)c4)ccc2C)C3)cn1 [GNF 7, reference compound]
GI50 [1]: 3 to 5 µM | IC50 [2]: < 100 nM | IC50 [3]: < 100 nM | GI50 [4]: 0.5 to 3 µM | GI50 [5]: < 0.5 µM
